Experimental findings from article PMC5042178, “Amino acid residues of bitter taste receptor TAS2R16 that determine sensitivity in primates to β-glycosides” (Biophysics and Physicobiology, 2016) are described below.

Test in all cases: calcium imaging (Calcium-4), HEK […]
Common to all, as to assay type: cell-based

In experiment [1] the target is T1, human TAS2R16 (Homo sapiens, UniProt Q9NYV7, E86T/I247M).
T1 construct: full-length; N-terminal 45 residues of rat SSTR3 and C-terminal 8 residues of bovine rhodopsin as tags; pEAK10, HEK 293T with G16gust44
T1 sequence (Q9NYV7 1-291 E86T/I247M): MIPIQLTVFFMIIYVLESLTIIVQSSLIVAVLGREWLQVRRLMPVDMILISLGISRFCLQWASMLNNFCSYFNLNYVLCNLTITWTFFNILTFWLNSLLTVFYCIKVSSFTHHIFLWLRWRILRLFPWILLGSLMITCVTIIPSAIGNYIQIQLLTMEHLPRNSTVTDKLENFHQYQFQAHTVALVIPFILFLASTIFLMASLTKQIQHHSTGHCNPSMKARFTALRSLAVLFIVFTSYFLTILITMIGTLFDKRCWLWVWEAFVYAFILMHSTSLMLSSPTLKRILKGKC

For experiment [2], the target named is T2, human TAS2R16 (Homo sapiens, UniProt Q9NYV7).
T2 construct: full-length; N-terminal 45 residues of rat SSTR3 and C-terminal 8 residues of bovine rhodopsin as tags; pEAK10, HEK 293T with G16gust44
T2 sequence (Q9NYV7 1-291): T1 sequence (Q9NYV7 1-291 E86T/I247M) with T86E, M247I
The conditions noted are these: G16gust44 co-expressed; agonist.

Experiment [3] addresses T3, human TAS2R16 (Homo sapiens, UniProt Q9NYV7, E86T/V260F).
T3 construct: full-length; N-terminal 45 residues of rat SSTR3 and C-terminal 8 residues of bovine rhodopsin as tags; pEAK10, HEK 293T with G16gust44
T3 sequence (Q9NYV7 1-291 E86T/V260F): T1 sequence (Q9NYV7 1-291 E86T/I247M) with M247I, V260F

Experiment [4] deals with T4, human TAS2R16 (Homo sapiens, UniProt Q9NYV7, S133C).
T4 construct: full-length; N-terminal 45 residues of rat SSTR3 and C-terminal 8 residues of bovine rhodopsin as tags; pEAK10, HEK 293T with G16gust44
T4 sequence (Q9NYV7 1-291 S133C): T1 sequence (Q9NYV7 1-291 E86T/I247M) with T86E, S133C, M247I

The target in experiment [5] is T5, human TAS2R16 (Homo sapiens, UniProt Q9NYV7, L125W).
T5 construct: full-length; N-terminal 45 residues of rat SSTR3 and C-terminal 8 residues of bovine rhodopsin as tags; pEAK10, HEK 293T with G16gust44
T5 sequence (Q9NYV7 1-291 L125W): T1 sequence (Q9NYV7 1-291 E86T/I247M) with T86E, L125W, M247I

Experiment [6] addresses T6, human TAS2R16 (Homo sapiens, UniProt Q9NYV7, V260F).
T6 construct: full-length; N-terminal 45 residues of rat SSTR3 and C-terminal 8 residues of bovine rhodopsin as tags; pEAK10, HEK 293T with G16gust44
T6 sequence (Q9NYV7 1-291 V260F): T1 sequence (Q9NYV7 1-291 E86T/I247M) with T86E, M247I, V260F

In experiment [7] the target is T7, human TAS2R16 (Homo sapiens, UniProt Q9NYV7, E86T/I247M/V260F).
T7 construct: full-length; N-terminal 45 residues of rat SSTR3 and C-terminal 8 residues of bovine rhodopsin as tags; pEAK10, HEK 293T with G16gust44
T7 sequence (Q9NYV7 1-291 E86T/I247M/V260F): T1 sequence (Q9NYV7 1-291 E86T/I247M) with V260F

Experiment [8] concerns the target T8, human TAS2R16 (Homo sapiens, UniProt Q9NYV7, I247M).
T8 construct: full-length; N-terminal 45 residues of rat SSTR3 and C-terminal 8 residues of bovine rhodopsin as tags; pEAK10, HEK 293T with G16gust44
T8 sequence (Q9NYV7 1-291 I247M): T1 sequence (Q9NYV7 1-291 E86T/I247M) with T86E

In experiment [9] the target is T2, human TAS2R16.

Residue numbers refer to the chain shown, from its start. Read-outs that look alike come from different tables or passages of the source.

In general, EC50 refers to the concentration needed to bring the measured effect to its halfway point.

In the case of `OCc1ccccc1O[C@@H]1O[C@H](CO)[C@@H](O)[C@H](O)[C@H]1O` [salicin], the EC50 at human TAS2R16 [1] was 3540 ± 550 µM; on human TAS2R16 [2], “plotted with wild-type human and macaque TAS2R16s”; at human TAS2R16 [3] it was 3650 ± 1000 µM; at human TAS2R16 [4], 74 ± 6 µM; on human TAS2R16 [5], 200 ± 50 µM; on human TAS2R16 [6], 1280 ± 180 µM. The EC50 at human TAS2R16 [7] came to 5090 ± 1100 µM; on human TAS2R16 [8] it was 1400 ± 90 µM.

`N#C[C@H](O[C@@H]1O[C@H](CO[C@@H]2O[C@H](CO)[C@@H](O)[C@H](O)[C@H]2O)[C@@H](O)[C@H](O)[C@H]1O)c1ccccc1` [amygdalin]: the EC50 at human TAS2R16 [9] was found to be 760 ± 400 µM.
